Reference: ChEMBL document CHEMBL1221226 (Nat Chem Biol, 2009)

What was measured:
Glucagon receptor = Glucagon receptor (Homo sapiens, UniProt P47871); experiment: Agonist activity at GCGR expressed in HEK293 cells assessed as stimulation of cAMP production by luciferase reporter gene assay; type: functional, cell-based
[1] = target: Glucagon-like peptide 1 receptor (Homo sapiens, UniProt P43220); experiment: Agonist activity at GLP1R expressed in HEK293 cells assessed as stimulation of cAMP production by luciferase reporter gene assay; type: functional, cell-based
Glucagon-like peptide 1 receptor, sequence (P43220 whole entry): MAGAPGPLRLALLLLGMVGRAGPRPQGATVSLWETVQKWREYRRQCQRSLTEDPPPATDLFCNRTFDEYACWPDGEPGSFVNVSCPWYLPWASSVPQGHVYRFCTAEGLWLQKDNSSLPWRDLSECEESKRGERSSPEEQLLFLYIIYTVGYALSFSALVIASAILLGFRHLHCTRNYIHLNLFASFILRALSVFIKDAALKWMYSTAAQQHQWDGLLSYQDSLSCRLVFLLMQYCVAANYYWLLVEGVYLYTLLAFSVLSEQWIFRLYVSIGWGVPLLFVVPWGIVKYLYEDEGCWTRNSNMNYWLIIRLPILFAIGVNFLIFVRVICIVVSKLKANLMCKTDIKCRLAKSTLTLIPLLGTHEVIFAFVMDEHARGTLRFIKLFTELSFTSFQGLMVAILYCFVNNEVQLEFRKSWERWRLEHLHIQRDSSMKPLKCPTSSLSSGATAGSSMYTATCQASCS

Glucagon receptor, sequence (P47871 whole entry): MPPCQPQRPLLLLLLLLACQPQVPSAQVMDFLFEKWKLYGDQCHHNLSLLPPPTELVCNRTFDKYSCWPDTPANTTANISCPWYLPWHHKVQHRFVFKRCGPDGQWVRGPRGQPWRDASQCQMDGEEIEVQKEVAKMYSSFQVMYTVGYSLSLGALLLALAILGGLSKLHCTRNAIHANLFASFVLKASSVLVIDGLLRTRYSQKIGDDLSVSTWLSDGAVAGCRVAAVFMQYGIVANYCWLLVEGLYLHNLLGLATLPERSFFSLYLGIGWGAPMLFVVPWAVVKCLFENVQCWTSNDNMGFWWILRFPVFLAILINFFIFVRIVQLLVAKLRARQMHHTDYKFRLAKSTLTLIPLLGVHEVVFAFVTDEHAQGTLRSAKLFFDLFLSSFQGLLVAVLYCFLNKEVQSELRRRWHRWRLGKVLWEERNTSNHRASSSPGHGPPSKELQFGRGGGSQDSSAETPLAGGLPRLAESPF

EC50 (Glucagon receptor) [pM] | EC50 [1] [pM] | SMILES
87 | 28 | CSCC[C@H](NC(=O)[C@H](CC(C)C)NC(=O)[C@H](Cc1c[nH]c2ccccc12)NC(=O)[C@H](CCC(N)=O)NC(=O)[C@@H](NC(=O)[C@H](Cc1ccccc1)NC(=O)[C@H](CC(=O)O)NC(=O)[C@H](CCCCN)NC(=O)[C@H](C)NC(=O)[C@H](C)NC(=O)[C@H](CCCNC(=N)N)NC(=O)[C@H](CCC(=O)O)NC(=O)[C@H](CC(=O)O)NC(=O)[C@H](CC(C)C)NC(=O)[C@H](Cc1ccc(O)cc1)NC(=O)[C@H](CCCCN)NC(=O)[C@H](CO)NC(=O)[C@H](Cc1ccc(O)cc1)NC(=O)[C@H](CC(=O)O)NC(=O)[C@H](CO)NC(=O)[C@@H](NC(=O)[C@H](Cc1ccccc1)NC(=O)[C@@H](NC(=O)CNC(=O)[C@H](CCC(N)=O)NC(=O)[C@H](CO)N[C@@H](Cc1cnc[nH]1)C(=O)O)[C@@H](C)O)[C@@H](C)O)C(C)C)C(=O)N[C@@H](CC(N)=O)C(=O)N[C@H](C(N)=O)[C@@H](C)O
100 | 230 | CSCC[C@H](NC(=O)[C@H](CC(C)C)NC(=O)[C@H](Cc1c[nH]c2ccccc12)NC(=O)[C@H](CCC(N)=O)NC(=O)[C@@H](NC(=O)[C@H](Cc1ccccc1)NC(=O)[C@H](CC(=O)O)NC(=O)[C@H](CCC(N)=O)NC(=O)[C@H](C)NC(=O)[C@H](CCCNC(=N)N)NC(=O)[C@H](CCCNC(=N)N)NC(=O)[C@H](Cc1c[nH]cn1)NC(=O)[C@H](CC(=O)O)NC(=O)[C@H](CC(C)C)NC(=O)[C@H](Cc1ccc(O)cc1)NC(=O)[C@H](CCCCN)NC(=O)[C@H](CO)NC(=O)[C@H](Cc1ccc(O)cc1)NC(=O)[C@H](CC(=O)O)NC(=O)[C@H](CO)NC(=O)[C@@H](NC(=O)[C@H](Cc1ccccc1)NC(=O)[C@@H](NC(=O)CNC(=O)[C@H](CCC(N)=O)NC(=O)[C@H](CO)N[C@@H](Cc1cnc[nH]1)C(=O)O)[C@@H](C)O)[C@@H](C)O)C(C)C)C(=O)N[C@@H](CC(N)=O)C(=O)N[C@H](C(N)=O)[C@@H](C)O
54 | 130 | CSCC[C@H](NC(=O)[C@H](CC(C)C)NC(=O)[C@H](Cc1c[nH]c2ccccc12)NC(=O)[C@H](CCC(N)=O)NC(=O)[C@@H](NC(=O)[C@H](Cc1ccccc1)NC(=O)[C@H](CC(=O)O)NC(=O)[C@H](CCC(N)=O)NC(=O)[C@H](C)NC(=O)[C@H](CCCNC(=N)N)NC(=O)[C@H](CCCNC(=N)N)NC(=O)C[C@H](CCC(=O)O)NC(=O)[C@H](CC(=O)O)NC(=O)[C@H](CC(C)C)NC(=O)[C@H](Cc1ccc(O)cc1)NC(=O)[C@H](CCCCN)NC(=O)[C@H](CO)NC(=O)[C@H](Cc1ccc(O)cc1)NC(=O)[C@H](CC(=O)O)NC(=O)[C@H](CO)NC(=O)[C@@H](NC(=O)[C@H](Cc1ccccc1)NC(=O)[C@@H](NC(=O)CNC(=O)[C@H](CCC(N)=O)NC(=O)[C@H](CO)N[C@@H](Cc1cnc[nH]1)C(=O)O)[C@@H](C)O)[C@@H](C)O)C(C)C)C(=O)N[C@@H](CC(N)=O)C(=O)N[C@H](C(N)=O)[C@@H](C)O
130 | 580 | CSCC[C@H](NC(=O)[C@H](CC(C)C)NC(=O)[C@H](Cc1c[nH]c2ccccc12)NC(=O)[C@H](CCC(N)=O)NC(=O)[C@@H](NC(=O)[C@H](Cc1ccccc1)NC(=O)[C@H](CC(=O)O)NC(=O)[C@H](CCC(N)=O)NC(=O)[C@H](C)NC(=O)[C@H](CCCNC(=N)N)NC(=O)[C@H](CCCNC(=N)N)NC(=O)[C@@H](NC(=O)[C@H](CC(=O)O)NC(=O)[C@H](CC(C)C)NC(=O)[C@H](Cc1ccc(O)cc1)NC(=O)[C@H](CCCCN)NC(=O)[C@H](CO)NC(=O)[C@H](Cc1ccc(O)cc1)NC(=O)[C@H](CC(=O)O)NC(=O)[C@H](CO)NC(=O)[C@@H](NC(=O)[C@H](Cc1ccccc1)NC(=O)[C@@H](NC(=O)CNC(=O)[C@H](CCC(N)=O)NC(=O)[C@H](CO)N[C@@H](Cc1cnc[nH]1)C(=O)O)[C@@H](C)O)[C@@H](C)O)[C@@H](C)O)C(C)C)C(=O)N[C@@H](CC(N)=O)C(=O)N[C@H](C(N)=O)[C@@H](C)O
– | 260 | CSCC[C@H](NC(=O)[C@H](CC(C)C)NC(=O)[C@H](Cc1c[nH]c2ccccc12)NC(=O)[C@H](CCC(N)=O)NC(=O)[C@@H](NC(=O)[C@H](Cc1ccccc1)NC(=O)[C@H](CC(=O)O)NC(=O)[C@H](CCC(N)=O)NC(=O)[C@H](C)NC(=O)[C@H](CCCN=C(N)N)NC(=O)[C@H](CCCN=C(N)N)NC(=O)[C@H](CCC(N)=O)NC(=O)[C@H](CC(=O)O)NC(=O)[C@H](CC(C)C)NC(=O)[C@H](Cc1ccc(O)cc1)NC(=O)[C@H](CCCCN)NC(=O)[C@H](CO)NC(=O)[C@H](Cc1ccc(O)cc1)NC(=O)[C@H](CC(=O)O)NC(=O)[C@H](CO)NC(=O)[C@@H](NC(=O)[C@H](Cc1ccccc1)NC(=O)[C@@H](NC(=O)CNC(=O)[C@H](CCC(N)=O)NC(=O)[C@H](CO)N[C@@H](Cc1cnc[nH]1)C(=O)O)[C@@H](C)O)[C@@H](C)O)C(C)C)C(=O)N[C@@H](CC(N)=O)C(=O)N[C@H](C(N)=O)[C@@H](C)O

The next lines start with the compound.

SMILES | EC50 (Glucagon receptor) [pM] | EC50 [1] [pM]
CSCC[C@H](NC(=O)[C@H](CC(C)C)NC(=O)[C@H](Cc1c[nH]c2ccccc12)NC(=O)[C@H](CCC(N)=O)NC(=O)[C@@H](NC(=O)[C@H](Cc1ccccc1)NC(=O)[C@H](CC(=O)O)NC(=O)[C@H](CCCCN)NC(=O)[C@H](C)NC(=O)[C@H](CCCN=C(N)N)NC(=O)[C@H](CCCN=C(N)N)NC(=O)[C@H](CO)NC(=O)[C@H](CC(=O)O)NC(=O)[C@H](CC(C)C)NC(=O)[C@H](Cc1ccc(O)cc1)NC(=O)[C@H](CCCCN)NC(=O)[C@H](CO)NC(=O)[C@H](Cc1ccc(O)cc1)NC(=O)[C@H](CC(=O)O)NC(=O)[C@H](CO)NC(=O)[C@@H](NC(=O)[C@H](Cc1ccccc1)NC(=O)[C@@H](NC(=O)CNC(=O)[C@H](CCC(N)=O)NC(=O)[C@H](CO)N[C@@H](Cc1cnc[nH]1)C(=O)O)[C@@H](C)O)[C@@H](C)O)C(C)C)C(=O)N[C@@H](CC(N)=O)C(=O)N[C@H](C(N)=O)[C@@H](C)O | 120 | 130
CSCC[C@H](NC(=O)[C@H](CC(C)C)NC(=O)[C@H](Cc1c[nH]c2ccccc12)NC(=O)[C@H](CCC(N)=O)NC(=O)[C@@H](NC(=O)[C@H](Cc1ccccc1)NC(=O)[C@H](CC(=O)O)NC(=O)[C@H](CCC(N)=O)NC(=O)[C@H](C)NC(=O)[C@H](CCCN=C(N)N)NC(=O)[C@H](CCCN=C(N)N)NC(=O)[C@@H]1CCC(=O)NCCCC[C@H](NC(=O)[C@H](CO)NC(=O)[C@H](Cc2ccc(O)cc2)NC(=O)[C@H](CC(=O)O)NC(=O)[C@H](CO)NC(=O)[C@@H](NC(=O)[C@H](Cc2ccccc2)NC(=O)[C@@H](NC(=O)CNC(=O)[C@H](CCC(N)=O)NC(=O)[C@H](CO)N[C@@H](Cc2cnc[nH]2)C(=O)O)[C@@H](C)O)[C@@H](C)O)C(=O)N[C@@H](Cc2ccc(O)cc2)C(=O)N[C@@H](CC(C)C)C(=O)N[C@@H](CC(=O)O)C(=O)N1)C(C)C)C(=O)N[C@@H](CC(N)=O)C(=O)N[C@H](C(=O)O)[C@@H](C)O | 46 | 51
CC[C@H](C)[C@H](NC(=O)[C@H](Cc1ccccc1)NC(=O)[C@H](CC(=O)O)NC(=O)[C@H](CCCCN)NC(=O)[C@H](C)NC(=O)[C@H](CCCNC(=N)N)NC(=O)[C@H](CCCNC(=N)N)NC(=O)[C@H](CCC(=O)O)NC(=O)[C@H](CC(=O)O)NC(=O)[C@H](CC(C)C)NC(=O)[C@H](Cc1ccc(O)cc1)NC(=O)[C@H](CCCCN)NC(=O)[C@H](CO)NC(=O)[C@H](Cc1ccc(O)cc1)NC(=O)[C@H](CC(=O)O)NC(=O)[C@H](CO)NC(=O)[C@@H](NC(=O)[C@H](Cc1ccccc1)NC(=O)[C@@H](NC(=O)CNC(=O)[C@H](CCC(N)=O)NC(=O)[C@H](CO)N[C@@H](Cc1cnc[nH]1)C(=O)O)[C@@H](C)O)[C@@H](C)O)C(=O)N[C@@H](CCC(N)=O)C(=O)N[C@@H](Cc1c[nH]c2ccccc12)C(=O)N[C@@H](CC(C)C)C(=O)N[C@@H](CCSC)C(=O)N[C@@H](CC(N)=O)C(=O)N[C@H](C(=O)N[C@H](C(N)=O)[C@@H](C)O)[C@@H](C)O | 73 | 68
CSCC[C@@H]1NC(=O)[C@H](CC(C)C)NC(=O)[C@H](Cc2c[nH]c3ccccc23)NC(=O)[C@@H](NC(=O)[C@@H](NC(=O)[C@H](Cc2ccccc2)NC(=O)[C@H](CC(=O)O)NC(=O)[C@H](CCC(N)=O)NC(=O)[C@H](C)NC(=O)[C@H](CCCN=C(N)N)NC(=O)[C@H](CCCN=C(N)N)NC(=O)[C@H](CO)NC(=O)[C@H](CC(=O)O)NC(=O)[C@H](CC(C)C)NC(=O)[C@H](Cc2ccc(O)cc2)NC(=O)[C@H](CCCCN)NC(=O)[C@H](CO)NC(=O)[C@H](Cc2ccc(O)cc2)NC(=O)[C@H](CC(=O)O)NC(=O)[C@H](CO)NC(=O)[C@@H](NC(=O)[C@H](Cc2ccccc2)NC(=O)[C@@H](NC(=O)CNC(=O)[C@H](CCC(N)=O)NC(=O)[C@H](CO)N[C@@H](Cc2cnc[nH]2)C(=O)O)[C@@H](C)O)[C@@H](C)O)C(C)C)CCC(=O)NCCCC[C@@H](C(=O)N[C@H](C(=O)O)[C@@H](C)O)NC1=O | 76 | 180
CSCC[C@H](NC(=O)[C@H](CC(C)C)NC(=O)[C@H](Cc1c[nH]c2ccccc12)NC(=O)[C@H](CCC(N)=O)NC(=O)[C@@H](NC(=O)[C@H](Cc1ccccc1)NC(=O)[C@H](CC(=O)O)NC(=O)[C@H](CCC(N)=O)NC(=O)[C@H](C)NC(=O)[C@H](CCCN=C(N)N)NC(=O)[C@H](CCCN=C(N)N)NC(=O)[C@H](CCC(=O)O)NC(=O)[C@H](CC(=O)O)NC(=O)[C@H](CC(C)C)NC(=O)[C@H](Cc1ccc(O)cc1)NC(=O)[C@H](CCCCN)NC(=O)[C@H](CO)NC(=O)[C@H](Cc1ccc(O)cc1)NC(=O)[C@H](CC(=O)O)NC(=O)[C@H](CO)NC(=O)[C@@H](NC(=O)[C@H](Cc1ccccc1)NC(=O)[C@@H](NC(=O)CNC(=O)[C@H](CCC(N)=O)NC(=O)[C@H](CO)N[C@@H](Cc1cnc[nH]1)C(=O)O)[C@@H](C)O)[C@@H](C)O)C(C)C)C(=O)N[C@@H](CC(N)=O)C(=O)N[C@H](C(=O)O)[C@@H](C)O | 53 | 1100
